± gives the expanded uncertainty stated by the source.
Assay: xn = mol fraction of the nth substance listed
Settings: Liquid, Vibrating tube method

CC(C)OC(C)C [diisopropyl ether] + CC(C)O
mass density [kg/m3]
Settings | x2 = 0.1503 | x2 = 0.2979 | x2 = 0.4228 | x2 = 0.5 | x2 = 0.6737 | x2 = 0.8483
298.15 K, 100 kPa | 725.5 ± 0.7 | 732.6 ± 0.7 | 739.4 ± 0.7 | 743.7 ± 0.7 | 754.9 ± 0.7 | 768 ± 0.7
298.15 K, 1000 kPa | 726.6 ± 0.7 | 733.6 ± 0.7 | 740.5 ± 0.7 | 744.7 ± 0.7 | 755.8 ± 0.7 | 768.9 ± 0.7
298.15 K, 5000 kPa | 731.3 ± 0.7 | 738.2 ± 0.7 | 744.8 ± 0.7 | 749 ± 0.7 | 759.9 ± 0.7 | 772.6 ± 0.7
298.15 K, 10000 kPa | 736.8 ± 0.7 | 743.6 ± 0.7 | 749.9 ± 0.7 | 754 ± 0.7 | 764.7 ± 0.7 | 777.1 ± 0.7
298.15 K, 15000 kPa | 742.1 ± 0.8 | 748.6 ± 0.8 | 754.6 ± 0.7 | 758.8 ± 0.7 | 769.1 ± 0.7 | 781.3 ± 0.7
298.15 K, 20000 kPa | 746.8 ± 0.8 | 753.2 ± 0.8 | 759.2 ± 0.8 | 763.2 ± 0.8 | 773.4 ± 0.8 | 785.2 ± 0.8
298.15 K, 25000 kPa | 751.4 ± 0.8 | 757.6 ± 0.8 | 763.5 ± 0.8 | 767.5 ± 0.8 | 777.4 ± 0.8 | 789 ± 0.8
298.15 K, 30000 kPa | 755.7 ± 0.8 | 761.9 ± 0.8 | 767.6 ± 0.8 | 771.5 ± 0.8 | 781.2 ± 0.8 | 792.6 ± 0.8
298.15 K, 35000 kPa | 759.7 ± 0.8 | 765.8 ± 0.8 | 771.5 ± 0.8 | 775.2 ± 0.8 | 784.8 ± 0.8 | 796 ± 0.8
298.15 K, 40000 kPa | 763.6 ± 0.8 | 769.6 ± 0.8 | 775.2 ± 0.8 | 778.9 ± 0.8 | 788.3 ± 0.8 | 799.3 ± 0.8
298.15 K, 45000 kPa | 767.4 ± 0.9 | 773.2 ± 0.9 | 778.8 ± 0.8 | 782.4 ± 0.8 | 791.7 ± 0.8 | 802.6 ± 0.8
298.15 K, 50000 kPa | 770.9 ± 0.9 | 776.7 ± 0.9 | 782.2 ± 0.9 | 785.8 ± 0.9 | 794.9 ± 0.8 | 805.6 ± 0.8
298.15 K, 55000 kPa | 774.4 ± 0.9 | 780.1 ± 0.9 | 785.5 ± 0.9 | 789 ± 0.9 | 798.1 ± 0.9 | 808.6 ± 0.8
298.15 K, 60000 kPa | 777.7 ± 0.9 | 783.3 ± 0.9 | 788.7 ± 0.9 | 792.1 ± 0.9 | 801.1 ± 0.9 | 811.5 ± 0.9
298.15 K, 65000 kPa | 780.9 ± 0.9 | 786.5 ± 0.9 | 791.8 ± 0.9 | 795.2 ± 0.9 | 804 ± 0.9 | 814.3 ± 0.9
298.15 K, 70000 kPa | 784 ± 1 | 789.5 ± 1 | 794.8 ± 0.9 | 798.2 ± 0.9 | 806.8 ± 0.9 | 817.1 ± 0.9
298.15 K, 80000 kPa | 789.9 ± 1 | 795.3 ± 1 | 800.5 ± 1 | 803.8 ± 1 | 812.3 ± 0.9 | 822.3 ± 0.9
298.15 K, 90000 kPa | 795.6 ± 1 | 800.8 ± 1 | 805.9 ± 1 | 809.1 ± 1 | 817.5 ± 1 | 827.3 ± 1
298.15 K, 100000 kPa | 800.8 ± 1.1 | 806 ± 1.1 | 810.9 ± 1 | 814.2 ± 1 | 822.4 ± 1 | 832 ± 1
298.15 K, 110000 kPa | 805.8 ± 1.1 | 811 ± 1.1 | 815.8 ± 1.1 | 818.9 ± 1.1 | 827.1 ± 1 | 836.6 ± 1
298.15 K, 120000 kPa | 810.5 ± 1.2 | 815.6 ± 1.1 | 820.4 ± 1.1 | 823.5 ± 1.1 | 831.5 ± 1.1 | 840.8 ± 1
298.15 K, 130000 kPa | 815.1 ± 1.2 | 820.1 ± 1.2 | 824.8 ± 1.2 | 827.9 ± 1.1 | 835.7 ± 1.1 | 844.9 ± 1.1
298.15 K, 140000 kPa | 819.5 ± 1.2 | 824.4 ± 1.2 | 829 ± 1.2 | 832.1 ± 1.2 | 839.8 ± 1.1 | 848.9 ± 1.1
313.15 K, 100 kPa | 709.6 ± 0.7 | 716.9 ± 0.7 | 724 ± 0.7 | 728.5 ± 0.7 | 740.2 ± 0.7 | 754 ± 0.7
313.15 K, 1000 kPa | 710.8 ± 0.7 | 718.1 ± 0.7 | 725.1 ± 0.7 | 729.6 ± 0.7 | 741.3 ± 0.7 | 755 ± 0.7
313.15 K, 5000 kPa | 716.3 ± 0.7 | 723.3 ± 0.7 | 730 ± 0.7 | 734.4 ± 0.7 | 745.9 ± 0.7 | 759.2 ± 0.7
313.15 K, 10000 kPa | 722.4 ± 0.7 | 729.3 ± 0.7 | 735.7 ± 0.7 | 740.1 ± 0.7 | 751.1 ± 0.7 | 764.1 ± 0.7
313.15 K, 15000 kPa | 728.1 ± 0.8 | 734.8 ± 0.8 | 741 ± 0.8 | 745.3 ± 0.8 | 756 ± 0.7 | 768.7 ± 0.7
313.15 K, 20000 kPa | 733.4 ± 0.8 | 739.9 ± 0.8 | 746 ± 0.8 | 750.2 ± 0.8 | 760.7 ± 0.8 | 773 ± 0.8
313.15 K, 25000 kPa | 738.2 ± 0.8 | 744.6 ± 0.8 | 750.7 ± 0.8 | 754.6 ± 0.8 | 764.8 ± 0.8 | 776.9 ± 0.8
313.15 K, 30000 kPa | 743.1 ± 0.8 | 749.4 ± 0.8 | 755.1 ± 0.8 | 759.2 ± 0.8 | 769.2 ± 0.8 | 781 ± 0.8
313.15 K, 35000 kPa | 747.6 ± 0.8 | 753.6 ± 0.8 | 759.3 ± 0.8 | 763.3 ± 0.8 | 773.1 ± 0.8 | 784.7 ± 0.8
313.15 K, 40000 kPa | 751.7 ± 0.9 | 757.7 ± 0.8 | 763.4 ± 0.8 | 767.2 ± 0.8 | 776.8 ± 0.8 | 788.2 ± 0.8
313.15 K, 45000 kPa | 755.7 ± 0.9 | 761.6 ± 0.9 | 767.2 ± 0.9 | 770.9 ± 0.9 | – | –

Source: the NIST ThermoML archive (doi:10.1016/j.fluid.2018.04.012)
